Entries after “also recorded” stand apart in the source; their conditions may differ.
Tests used:
[1] = tested on: B. cinerea; test: Resazurin vital dye growth assay in microtiter wells; type: cell-based, Botrytis cinerea; settings: peptide 15 µM, monitored every 12 h for seven days
[2] = tested on: F. graminearum
[3] = tested on: P. expansum
[4] = tested on: B. sorokiniana; type: cell-based, Bipolaris sorokiniana
[5] = Water solubility of the peptides; type: physicochemical; settings: native peptide; solubilized in ethanol before dilution in water
Method: Peptides were produced by manual and semiautomatic solid-phase peptide synthesis (SPPS). To reduce the impact on the environment of the synthesis, a limited excess of reagents was employed in the coupling steps (1.5–2.5 equivalents of coupling reagents instead of the standard 4 equivalents-1 equivalent corresponds to the loading of the resin). Moreover, all steps were performed in the ecofriendly solvent mixture of dimethylsulfoxide/ethyl acetate 1:9 instead of the hazardous solvent N,N-dimethylformamide (DMF). We exploited ethyl cyano(hydroxyimino) acetate (Oxyma pure) and diisopropylcarbodiimide (DIC), classified by the ACS Green Chemistry Institute® Pharmaceutical Roundtable as two of the greenest coupling reagents, instead of the commonly employed O-benzotriazol-1-yl-1,1,3,3 tetramethyluronium hexafluorophosphate (HBTU)/1-hydroxy-1,2,3-benzotriazole (HOBt) mixture or HATU [2-(1H-7-aza-1,2,3-benzotriazol-1-yl)-1,1,3,3-tetramethyl uronium hexafluorophosphate]. The strategy reduced the environmental impact and synthetic costs by more than 70% compared to our previous methods based on standard procedure. By adopting a manual/semiautomatic synthetic approach, the amount of solvents and reagents were reduced relative to those used in automated synthesis. The steric hindrance of Aib makes it poorly reactive, to the point that standard procedures employ repeated couplings. […]

Q: With “nOct-Aib-Gly^2-Leu-Aib-Gly^5-Gly-Leu-Aib^8-Gly-Ile-Lol [trichogin, trichogin GA IV, short-length, natural 11-residue lipopeptaibol produced by T. longibrachiatum, reference compound]” as the substance, how does the “Growth Delay” value ([1]; PDB pH 6.9, 5 × 10^5 spores mL^−1, resazurin, 25 °C dark, vs untreated control, repeated three times) read?
A: The value was 0 h.

Q: And the “fungal growth / activity against B. cinerea (in words)” value ([1]; resazurin dye)?
A: The value was “fungal growth was observed after 12 h; also recorded: completely inactive”.

Q: What about the “activity against F. graminearum (in words)” value [2] of the same substance?
A: The value was “inactive”.

Q: What about the “activity against P. expansum (in words)” value [3] of the same substance?
A: Its value is “inactive”.

Q: And the “activity against B. sorokiniana (in words)” value [4]?
A: The value was “inactive”.

Q: And the “water solubility (in words)” value [5]?
A: The value was “poor water solubility”.

— publication PMC7589190, “Targeted Amino Acid Substitutions in a Trichoderma Peptaibol Confer Activity against Fungal Plant Pathogens and Protect Host Tissues from Botrytis cinerea Infection” (International Journal of Molecular Sciences, 2020)
